Assay results taken from patent EP0485583B1, “USE OF TETRAHYDROISOQUINOLINE DERIVATIVES FOR PREPARING ANTITUMORAL DRUGS” (ROUSSEL-UCLAF, priority 1990, dated 1991).

Molecular target: T1, tyrosinekinase du récepteur de l'EGF (Epidermal Growth Factor) (Homo sapiens, UniProt P00533)
T1 construct: On utilise des membranes de cellules A431 (ATCC CRL 1555) comme source de récepteurs de l'EGF; host or cells: A431 cell membranes
Experiment: Inhibition of EGF receptor tyrosine kinase (A431 cell membranes, 32P incorporation into poly(Glu, Ala, Tyr 6:3:1))
Type: biochemical
Conditions: A431 cell membranes (ATCC CRL 1555); samples containing substrate poly(Glu, Ala, Tyr 6:3:1) and EGF; 15 minutes at 30°C; dilution series starting at 51 microgrammes/ml; read-out: CI₅₀ (converted)
Protocol: Mesure de l'inhibition de la tyrosinekinase du récepteur de l'EGF (Epidermal Growth Factor).
Cette lignée cellulaire exprime à sa surface un grand nombre de récepteur de l'EGF qui possèdent une activité tyrosinekinase.
Ces cellules sont préincubées avec ou sans EGF (1000 nM) pendant 15 minutes et ajoutées au tampon HEPES (acide N-2-hydroxyéthyl-piperazine N'-2-éthanesulfonique) correspondant (avec ou sans EGP) et contenant des ions Mg²⁺ (10 mM) et Mn²⁺ (2 mM) 0,2 % de triton X-100, de l'orthovanadate de sodium (20 micromoles) et l'inhibiteur.
Des échantillons contenant ou ne contenant pas le substrat poly(Glu, Ala, Tyr 6 : 3 : 1) sont préparés. On initie la réaction par addition de [gamma³²P] ATP (32 micromoles). Après incubation pendant 15 minutes à 30°C les échantillons sont précipités à l'aide d'acide […] à 10 %, filtrés sur membrane Millipore ® et le ³²P incorporé est mesuré avec un compteur de scintillation liquide.

T1 sequence (P00533 25-1210): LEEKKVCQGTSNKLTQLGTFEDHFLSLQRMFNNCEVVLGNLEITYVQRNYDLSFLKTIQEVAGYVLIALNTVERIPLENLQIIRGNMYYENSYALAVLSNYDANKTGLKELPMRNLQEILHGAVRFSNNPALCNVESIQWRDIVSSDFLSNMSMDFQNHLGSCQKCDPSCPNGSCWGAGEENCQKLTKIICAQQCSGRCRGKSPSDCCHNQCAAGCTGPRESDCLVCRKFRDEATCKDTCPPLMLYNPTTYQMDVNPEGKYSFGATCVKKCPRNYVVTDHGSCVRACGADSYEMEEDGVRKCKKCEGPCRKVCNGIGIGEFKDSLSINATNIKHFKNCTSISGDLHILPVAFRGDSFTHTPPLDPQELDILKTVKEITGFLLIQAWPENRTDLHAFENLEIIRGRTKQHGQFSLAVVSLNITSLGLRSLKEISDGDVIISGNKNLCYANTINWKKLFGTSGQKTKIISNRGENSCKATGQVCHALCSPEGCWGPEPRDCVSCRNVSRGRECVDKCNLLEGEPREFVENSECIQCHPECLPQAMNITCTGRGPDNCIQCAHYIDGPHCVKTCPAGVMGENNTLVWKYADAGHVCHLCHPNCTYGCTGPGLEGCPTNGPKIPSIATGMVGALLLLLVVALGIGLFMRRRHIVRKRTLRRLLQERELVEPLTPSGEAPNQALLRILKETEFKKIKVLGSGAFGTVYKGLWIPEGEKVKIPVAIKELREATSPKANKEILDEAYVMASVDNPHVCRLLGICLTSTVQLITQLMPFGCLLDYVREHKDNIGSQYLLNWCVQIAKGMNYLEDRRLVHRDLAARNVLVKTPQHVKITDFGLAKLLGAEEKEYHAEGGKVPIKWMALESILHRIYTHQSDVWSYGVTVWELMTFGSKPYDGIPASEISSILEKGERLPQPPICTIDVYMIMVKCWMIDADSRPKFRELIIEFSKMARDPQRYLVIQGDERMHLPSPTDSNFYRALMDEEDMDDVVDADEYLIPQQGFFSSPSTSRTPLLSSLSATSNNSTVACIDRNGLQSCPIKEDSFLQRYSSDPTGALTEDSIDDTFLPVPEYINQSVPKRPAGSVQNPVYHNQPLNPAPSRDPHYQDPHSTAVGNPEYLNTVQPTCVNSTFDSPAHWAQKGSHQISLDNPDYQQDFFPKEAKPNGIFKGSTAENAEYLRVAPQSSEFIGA

Row | Compound | IC50
1 | Oc1cc2c(cc1O)CC(Cc1ccccc1)NC2 (stereo not drawn) [Produit de l'exemple 1, Bromhydrate du 3-phénylméthyl 1,2,3,4-tétrahydro, isoquinoléïne 6,7-diol] | 13.3 µM
2 | Oc1ccc(CC2NCCc3cc(O)c(O)cc32)cc1O (stereo not drawn) [Produit A, 1-[(3,4-dihydroxyphényl)méthyl] 1,2,3,4-tétrahydro isoquinoléïne 6,7-diol] | 3.83 µM
3 | Oc1ccc2[nH]c3c(c2c1)CCNC3Cc1ccc(O)c(O)c1 (stereo not drawn) [Produit B, 1,2-benzènediol 4-(2,3,4,9-tétrahydro 6-hydroxy-1H-pyrido[3,4-b]indol 1-yl) méthyl] | 8.06 µM
